# pIC50: −log10 of the molar value.
# System: calcium channels
# Conditions: read-out: IC50 values for blocking calcium channels; rat cerebellar granule cells, fura2 fluorescence, 37° C.
structure (smiles),measurement,value
COc1ccc(CCN(C)CCCC(C#N)(c2ccc(OC)c(OC)c2)C(C)C)cc1OC (stereo not shown) [Verapamil],pIC50,5.32

# Source: patent publication US5804554A, “Calcium channel blocking polypeptides from filistata hibernalis” (priority 1995, dated 1998)
